System: RNA Polymerase III
Assay: Promoter activity transfection assay with Pol III inhibitor ML-60218
Type: cell-based, human
Settings: after 24 hours of cell treatment with ML-60218 (20 μM); hairpin constructs with novel promoters
Experimental: For transient transfections Hela cells (grown in DMEM supplemented with 10% FCS), were grown in multiwell Petri dishes 16 hours before transfection. The expression [21A, 21A(1), 21A(2), 21A(3)] constructs containing the regions of interest cloned in the pTopo vectors (Invitrogen) were introduced into the cells using the Fugene 6 transfection reagent (Roche) according to the manufacturer's instructions. A plasmid Expressing Luciferase was used as control of transfection efficiency (to which all the results were normalized). 24, 48 and 72 hours after transfection cells were harvested and firely luciferase activity was measured by Dual-Luciferase reporter assay system (Promega). manufacturer's protocol.

**Q.** For Cc1c(-c2cc(NS(=O)(=O)c3ccccc3Cl)n(C)n2)sc2ccc(Cl)cc12 [ML-60218], which luciferase signal is on record?
**A.** increased

From patent publication US8481708B2, “snRNA gene-like transcriptional units and uses thereof” (Università degli Studi di Genova, priority 2005, dated 2013)
